Experiments:
[1] = Plasma pharmacokinetic analyses in CD1 mice; conditions: 50 mg/kg intraperitoneally
[2] = target: T1, BRD4(1) (Homo sapiens, UniProt O60885); experiment: BRD4; assay type: binding; conditions: BRD4(1) AlphaScreen, compared to JQ1
[3] = tested on: MYC; experiment: Immunoblot for MYC in MV4; assay type: cell-based, human; conditions: MV4;11 cells
[4] = tested on: HEXIM1; experiment: Immunoblot for HEXIM1 in MV4; assay type: cell-based, human; conditions: MV4;11 cells, 10 nM, later time points (4–24 hours)
[5] = target: BRD4 (Homo sapiens, UniProt O60885); experiment: Immunoblot for BRD4 protein level in MV4; assay type: cell-based; conditions: MV4;11 cells
[6] = target: T1, BRD4(1); experiment: BROMOscan
[7] = target: BRD4(2) (Homo sapiens, UniProt O60885); experiment: BROMOscan
[8] = target: BRD4(1,2) (Homo sapiens, UniProt O60885); experiment: BROMOscan
[9] = target: BRD4 (full-length, short-iso.) (Homo sapiens, UniProt O60885); experiment: BROMOscan

COC(=O)C[C@@H]1N=C(c2ccc(Cl)cc2)c2c(sc(C(=O)NCCNC(=O)C[C@@H]3N=C(c4ccc(Cl)cc4)c4c(sc(C)c4C)-n4c(C)nnc43)c2C)-n2c(C)nnc21 [(6S+2S)-PEG0, Methyl 2-((S)-4-(4-chlorophenyl)-2-((2-(2-((S)-4-(4-chlorophenyl)-2,3,9-trimethyl-6H-thieno[3,2-f][1,2,4]triazolo[4,3-a][1,4]diazepin-6-yl)acetamido)ethyl)carbamoyl)-3,9-dimethyl-6H-thieno[3,2-f][1,2,4]triazolo[4,3-a][1,4]diazepin-6-yl)acetate]
PK properties [1]: comparable PK properties to MT1

COC(=O)C[C@@H]1N=C(c2ccc(Cl)cc2)c2c(sc(C(=O)NCCOCCNC(=O)c3sc4c(c3C)C(c3ccc(Cl)cc3)=N[C@@H](CC(=O)OC)c3nnc(C)n3-4)c2C)-n2c(C)nnc21 [(2S+2S)-PEG1, Dimethyl 2,2'-((6S,6'S)-(((oxybis(ethane-2,1-diyl))bis(azanediyl))bis(carbonyl))bis(4-(4-chlorophenyl)-3,9-dimethyl-6H-thieno[3,2-f][1,2,4]triazolo[4,3-a][1,4]diazepine-2,6-diyl))diacetate]
increase in biochemical potency [2]: 20 fold

COC(=O)C[C@@H]1N=C(c2ccc(Cl)cc2)c2c(sc(C(=O)NCCOCCNC(=O)C[C@@H]3N=C(c4ccc(Cl)cc4)c4c(sc(C)c4C)-n4c(C)nnc43)c2C)-n2c(C)nnc21 [(6S+2S)-PEG1, Methyl 2-((S)-4-(4-chlorophenyl)-2-((2-(2-(2-((S)-4-(4-chlorophenyl)-2,3,9-trimethyl-6H-thieno[3,2-f][1,2,4]triazolo[4,3-a][1,4]diazepin-6-yl)acetamido)ethoxy)ethyl)carbamoyl)-3,9-dimethyl-6H-thieno[3,2-f][1,2,4]triazolo[4,3-a][1,4]diazepin-6-yl)acetate]
time of maximum effect on MYC ([3]; 10 nM): 2 h | lowest concentration at which MYC was downregulated ([3]; two hours of treatment): 10 nM | HEXIM1 expression [4]: upregulation | effect on BRD4 protein stability (degradation) [5]: No effect on protein stability | displacement of phage expressing BRD4(1) [6]: picomolar | displacement of phage expressing BRD4(2) [7]: picomolar | displacement of phage expressing tandem bromodomain construct BRD4(1,2) [8]: picomolar | displacement of phage expressing full length protein BRD4(full) [9]: picomolar

From publication PMC5117811 (Nature chemical biology, 2016)
